The data set is described as follows: cn = amount concentration of the nth substance listed, in mol/dm3. The following applies: 303.15 K; 101 kPa; Liquid; 4510 conductivity meter; c1 = 0.001.

As for `CC1=C(C(=O)O)N2C(=O)[C@@H](NC(=O)[C@H](N)c3ccc(O)cc3)[C@H]2SC1` [cefadroxil] + O, the electrical conductivity was 0.0001 S/m.
